Reference: PMC6273065, “Synthesis, Molecular Modelling and Biological Evaluation of Novel Heterodimeric, Multiple Ligands Targeting Cholinesterases and Amyloid Beta” (Molecules, 2016)

How the values were obtained:
EeAChE = molecular target: T1, EeAChE (Electrophorus electricus, UniProt O42275); assay: biochemical; format: biochemical; settings: for EeAChE inhibitory activity in words: Ellman's assay
T1 construct: purchased Sigma–Aldrich
Procedure: (§1) Ellman’s method was used to determine the activity of the synthesized compounds against AChE from electric eel (Electrophorus electricus, EeAChE) and BuChE from equine serum (EqBuChE).
(§2) All assays were performed in 0.1 M phosphate buffer pH 8.0. The tested compounds or water in a blank sample (25 µL) were incubated with the enzyme (20 µL) for 5 min at 25 °C in buffer (765 µL) prior to starting the reaction. Then, DTNB (20 µL) and ATC (20 µL) were added. […] Each condition was measured in triplicate. The percentages of enzyme inhibition were calculated from the equation 100%—Ai/A0 × 100%, where Ai is the absorbance of a sample with an inhibitor and A0 is the absorbance of a blank sample (100% activity of the enzyme). The IC50 values were calculated using GraphPad Prism 5. Data is expressed as mean ± SEM.

EqBuChE = molecular target: T2, EqBuChE (Equus caballus, UniProt P81908); assay: biochemical
T2 construct: BuChE from equine serum (EqBuChE, Sigma–Aldrich); purchased Sigma–Aldrich; host or cells: equine serum
T2 sequence (P81908 whole entry): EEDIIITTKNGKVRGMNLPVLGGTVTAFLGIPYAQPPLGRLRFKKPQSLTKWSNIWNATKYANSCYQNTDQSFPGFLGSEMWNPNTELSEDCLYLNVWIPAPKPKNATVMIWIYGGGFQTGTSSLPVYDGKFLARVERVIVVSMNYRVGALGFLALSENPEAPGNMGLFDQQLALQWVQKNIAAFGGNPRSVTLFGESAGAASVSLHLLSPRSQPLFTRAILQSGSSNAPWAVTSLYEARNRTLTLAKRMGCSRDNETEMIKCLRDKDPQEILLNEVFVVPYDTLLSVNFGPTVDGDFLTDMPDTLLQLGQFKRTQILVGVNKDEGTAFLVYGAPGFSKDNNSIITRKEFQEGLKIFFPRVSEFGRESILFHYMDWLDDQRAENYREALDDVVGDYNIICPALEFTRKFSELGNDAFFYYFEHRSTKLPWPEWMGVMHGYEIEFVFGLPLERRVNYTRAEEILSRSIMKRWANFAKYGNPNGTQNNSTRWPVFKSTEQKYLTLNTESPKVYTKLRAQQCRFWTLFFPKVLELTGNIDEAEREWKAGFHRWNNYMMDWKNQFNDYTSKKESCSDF
Procedure: as §1, §2

Aβ1–42 = molecular target: T3, Aβ1–42 (Homo sapiens, UniProt P05067); assay: Thioflavin-T fluorometric assay of self-induced Aβ1–42 aggregation; format: biochemical; settings: 10 µM compound, 1.5 µM Aβ1–42; mean ± SD; <10 = defined as not active; read-out: Aβ1–42 Aggreg. % of inhibition
T3 construct: Recombinant human HFIP-pretreated Aβ1–42 peptide; purchased Merck Millipore Lot number 2387442
T3 sequence (P05067 672-713): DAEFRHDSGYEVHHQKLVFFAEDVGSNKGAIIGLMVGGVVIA
Source text: Mechanisms of Aβ aggregation remain unclear. Besides the self-induced assembly of Aβ, several other factors affect its aggregation, including metal ions, AChE [45], and oxidative stress. Therefore, we evaluated our compounds using the most versatile and commonly used Aβ1–42 aggregation Thioflavin T assay. Seven structurally diverse compounds were selected (one from each subseries) to test their ability to inhibit self-induced Aβ1–42 aggregation.
Thioflavin-T (ThT) fluorometric assay was performed to investigate the effect of the test compounds on the self-aggregation of Aβ1–42. […] Each sample was prepared in quadruplicate, and the DMSO was always at 3%. To quantify amyloid fibril formation, the ThT fluorescence was measured through the bottom of the plate every 180 s at an excitation wavelength of 440 nm and emission wavelength of 490 nm, with the medium continuously shaking between measurements using a 96-well microplate reader (Synergy™ H4, BioTek Instruments, Inc., Winooski, VT, USA). […] The fluorescence intensities at the plateau in the absence and presence of the test compounds were averaged, and the average fluorescence of the corresponding wells at t = 0 h was subtracted.

[1] = PAMPA-BBB; for Prediction of BBB penetration: class from log Pe; for Log Pe: 2 h at 37 °C, means of two replicates
Procedure: For anti-Alzheimer drug candidates, the ability to cross the blood–brain barrier and to enter the central nervous system (CNS) is crucial to achieve their pharmacological target and activity.
The BBB-PAMPA Explorer Test System was purchased from pION Inc. The in vitro permeability through BBB-1 lipid membrane was determined for 7 commercial drugs and the tested compounds. The compounds were dissolved in DMSO (10 mM stock solution) and diluted with Prisma HT buffer (5 µL/1 mL). Then, the […] 96-well microplate was filled with solution of the tested compounds in buffer (200 µL/well). The filter membrane in acceptor 96-well microplate was impregnated with BBB-1 lipid solution (5 µL/well) and the acceptor plate was filled with Brain Sink Buffer (200 µL/well). The acceptor plate was carefully placed on the donor plate to form a sandwich that was left undisturbed for 2 h at 37 °C. After incubation, the donor plate was carefully removed. The concentration of compounds in the acceptor, the donor, and the reference wells were measured using EnSpire Multimode Microplate Reader (PerkinElmer).

T1 sequence (O42275 24-633): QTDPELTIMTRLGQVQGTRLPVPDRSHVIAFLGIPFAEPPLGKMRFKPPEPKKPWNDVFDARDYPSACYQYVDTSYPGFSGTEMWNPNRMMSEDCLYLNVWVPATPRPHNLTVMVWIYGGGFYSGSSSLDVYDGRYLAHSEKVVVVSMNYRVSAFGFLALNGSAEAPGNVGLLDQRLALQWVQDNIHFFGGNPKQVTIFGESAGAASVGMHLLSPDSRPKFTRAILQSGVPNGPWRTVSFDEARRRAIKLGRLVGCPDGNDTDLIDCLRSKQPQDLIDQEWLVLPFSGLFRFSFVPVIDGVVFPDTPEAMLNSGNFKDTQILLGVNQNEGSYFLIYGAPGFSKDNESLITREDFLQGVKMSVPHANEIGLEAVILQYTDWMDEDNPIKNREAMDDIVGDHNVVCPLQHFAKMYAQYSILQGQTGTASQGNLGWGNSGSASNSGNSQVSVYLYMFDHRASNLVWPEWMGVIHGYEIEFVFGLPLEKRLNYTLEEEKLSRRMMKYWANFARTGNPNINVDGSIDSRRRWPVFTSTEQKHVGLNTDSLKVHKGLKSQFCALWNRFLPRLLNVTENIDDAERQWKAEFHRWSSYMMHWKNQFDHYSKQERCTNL

SMILES	IC50 (EeAChE) [µM]	IC50 (EqBuChE) [µM]	inhibition at 10 µM (Aβ1–42) [%]	Prediction of BBB penetration [1]	Log Pe [1]	EeAChE inhibitory activity in words (EeAChE)
O=C1c2ccccc2C(=O)N1CCCCCN1CCc2ccccc2C1 [Compound 10, 2-(5-(3,4-dihydroisoquinolin-2(1H)-yl)pentyl)isoindoline-1,3-dione]	1.266 ± 0.011	5.31 ± 0.16	–	–	–	–
O=C1c2ccccc2C(=O)N1CCCCCCN1CCOCC1 [Compound 6, 2-(6-Morpholinohexyl)isoindoline-1,3-dione]	17.2 ± 0.474	> 50	–	–	–	–
O=C1c2ccccc2S(=O)(=O)N1CCCCCCNCc1cccc(Cl)c1 [Compound 43, 2-(6-(3-chlorobenzylamino)hexyl)benzo[d]isothiazol-3(2H)-one 1,1-dioxide]	0.596 ± 0.006	6.54 ± 0.163	–	–	–	–
O=C1c2ccccc2C(=O)N1CCCCCN1CCOCC1 [Compound 5, 2-(5-Morpholinopentyl)isoindoline-1,3-dione]	18.1 ± 0.402	> 50	–	–	–	–
CCN(CC)CCCCCCCCN1CCc2ccccc2C1 [Compound 23, 8-(3,4-Dihydroisoquinolin-2(1H)-yl)-N,N-diethyloctan-1-amine]	4.72 ± 0.149	14 ± 0.343	< 10	–	–	–
O=C1c2ccccc2S(=O)(=O)N1CCCCCCCNCc1cccc(Cl)c1 [Compound 44, 2-(7-(3-chlorobenzylamino)heptyl)benzo[d]isothiazol-3(2H)-one 1,1-dioxide]	0.923 ± 0.012	2.46 ± 0.032	–	–	–	–
CC(C)NCC(O)COc1cccc2ccccc12 (stereo not shown) [Propranolol, reference compound]	–	–	–	CNS+ (CNS+, log Pe > −4.5, high permeability (i.e., can enter the CNS))	–	–
CCN(CC)CCCn1ccc2ccccc21 [Compound 30, N,N-diethyl-3-(1H-indol-1-yl)propan-1-amine]	> 50	> 50	–	–	–	–
O=C1c2ccccc2C(=O)N1CCCCCCN1CCCC1 [Compound 2, 2-(6-(Pyrrolidin-1-yl)hexyl)isoindoline-1,3-dione]	0.643 ± 0.006	> 50	–	–	–	–
O=C1c2ccccc2C(=O)N1CCCCCCCN1CCOCC1 [Compound 7, 2-(7-Morpholinoheptyl)isoindoline-1,3-dione]	4.11 ± 0.066	> 50	17.1 ± 6.13	CNS+ (CNS+, log Pe > −4.5, high permeability (i.e., can enter the CNS))	–4.2	–
CCN(CC)CCCCCCCN1CCc2ccccc2C1 [Compound 22, 7-(3,4-Dihydroisoquinolin-2(1H)-yl)-N,N-diethylheptan-1-amine]	17.3 ± 0.401	37.1 ± 0.878	–	–	–	–
O=C1c2ccccc2S(=O)(=O)N1CCCCCNCc1ccccc1F [Compound 39, 2-(5-(2-fluorobenzylamino)pentyl)benzo[d]isothiazol-3(2H)-one 1,1-dioxide]	0.15 ± 0.003	> 50	12.3 ± 2.63	CNS+ (CNS+, log Pe > −4.5, high permeability (i.e., can enter the CNS))	–4.0	–
O=C1c2ccccc2C(=O)N1CCCCCCCCN1CCc2ccccc2C1 [Compound 13, 2-(8-(3,4-Dihydroisoquinolin-2(1H)-yl)octyl)isoindoline-1,3-dione]	0.76 ± 0.017	0.618 ± 0.009	35.8 ± 5.39	CNS+ (CNS+, log Pe > −4.5, high permeability (i.e., can enter the CNS))	–4.2	–
Cn1c(=O)c2[nH]cnc2n(C)c1=O [Theophylline, reference compound]	–	–	–	–	–6.3	–
CCN(CC)CCCCCn1ccc2ccccc21 [Compound 32, N,N-Diethyl-5-(1H-indol-1-yl)pentan-1-amine]	> 50	22.6 ± 0.602	–	–	–	–
O=C1c2ccccc2C(=O)N1CCCCCCCCN1CCOCC1 [Compound 8, 2-(8-Morpholinooctyl)isoindoline-1,3-dione]	4.5 ± 0.064	> 50	–	–	–	–
CCN(CC)CCCCCN1CCc2ccccc2C1 [Compound 20, 5-(3,4-dihydroisoquinolin-2(1H)-yl)-N,N-diethylpentan-1-amine]	> 50	> 50	–	–	–	–
O=C1c2ccccc2C(=O)N1CCCCN1CCc2ccccc2C1 [Compound 9, 2-(4-(3,4-dihydroisoquinolin-2(1H)-yl)butyl)isoindoline-1,3-dione]	5.6 ± 0.087	12.82 ± 0.107	–	–	–	–
O=C1c2ccccc2S(=O)(=O)N1CCCCCCNCc1ccccc1F [Compound 40, 2-(6-(2-fluorobenzylamino)hexyl)benzo[d]isothiazol-3(2H)-one 1,1-dioxide]	1.14 ± 0.015	> 50	–	–	–	–
CCN(CC)CCCCCCCn1ccc2ccccc21 [Compound 34, N,N-Diethyl-7-(1H-indol-1-yl)heptan-1-amine]	22.2 ± 0.424	1.47 ± 0.593	–	–	–	–
CCN(CC)CCCCCCCCn1ccc2ccccc21 [Compound 35, N,N-Diethyl-8-(1H-indol-1-yl)octan-1-amine]	9.56 ± 0.289	3.47 ± 0.1	16.6 ± 2.74	–	–	–
O=C1c2ccccc2C(=O)N1CCCCCCCCCCCCN1CCc2ccccc2C1 [Compound 15, 2-(12-(3,4-Dihydroisoquinolin-2(1H)-yl)dodecyl)isoindoline-1,3-dione]	> 50	3.66 ± 0.085	–	–	–	not active
CCN(CC)CCCCCCN1CCc2ccccc2C1 [Compound 21, 6-(3,4-Dihydroisoquinolin-2(1H)-yl)-N,N-diethylhexan-1-amine]	> 50	> 50	–	–	–	–
O=C1c2ccccc2C(=O)N1CCCCCCCN1CCc2ccccc2C1 [Compound 12, 2-(7-(3,4-Dihydroisoquinolin-2(1H)-yl)heptyl)isoindoline-1,3-dione]	0.688 ± 0.017	1.17 ± 0.027	–	–	–	–
O=C1c2ccccc2C(=O)N1CCCCCN1CCCC1 [Compound 1, 2-(5-(Pyrrolidin-1-yl)pentyl)isoindoline-1,3-dione]	0.781 ± 0.009	> 50	–	–	–	–
CCN(CC)CCCCn1ccc2ccccc21 [Compound 31, N,N-diethyl-4-(1H-indol-1-yl)butan-1-amine]	> 50	26 ± 0.813	–	–	–	–
O=C1c2ccccc2C(=O)N1CCCCCCCCCCN1CCc2ccccc2C1 [Compound 14, 2-(10-(3,4-Dihydroisoquinolin-2(1H)-yl)decyl)isoindoline-1,3-dione]	> 50	1.73 ± 0.038	–	–	–	not active
CC(=O)[C@H]1CC[C@H]2[C@@H]3CCC4=CC(=O)CC[C@]4(C)[C@H]3CC[C@]12C [Progesterone, reference compound]	–	–	–	CNS+ (CNS+, log Pe > −4.5, high permeability (i.e., can enter the CNS))	–	–
O=C1c2ccccc2S(=O)(=O)N1CCCCCCCNCc1ccccc1F [Compound 41, 2-(7-(2-fluorobenzylamino)heptyl)benzo[d]isothiazol-3(2H)-one 1,1-dioxide]	0.735 ± 0.009	4.97 ± 0.127	–	–	–	–
CCN(CC)CCCCCCn1ccc2ccccc21 [Compound 33, N,N-Diethyl-6-(1H-indol-1-yl)hexan-1-amine]	> 50	28.7 ± 0.723	–	–	–	–
